These results are taken from ChEMBL document CHEMBL3991601, “The target landscape of clinical kinase drugs” (Science, 2017).

One experiment has as its target T1, Ephrin type-B receptor 6 (Homo sapiens, UniProt O15197).
T1 sequence (O15197 whole entry): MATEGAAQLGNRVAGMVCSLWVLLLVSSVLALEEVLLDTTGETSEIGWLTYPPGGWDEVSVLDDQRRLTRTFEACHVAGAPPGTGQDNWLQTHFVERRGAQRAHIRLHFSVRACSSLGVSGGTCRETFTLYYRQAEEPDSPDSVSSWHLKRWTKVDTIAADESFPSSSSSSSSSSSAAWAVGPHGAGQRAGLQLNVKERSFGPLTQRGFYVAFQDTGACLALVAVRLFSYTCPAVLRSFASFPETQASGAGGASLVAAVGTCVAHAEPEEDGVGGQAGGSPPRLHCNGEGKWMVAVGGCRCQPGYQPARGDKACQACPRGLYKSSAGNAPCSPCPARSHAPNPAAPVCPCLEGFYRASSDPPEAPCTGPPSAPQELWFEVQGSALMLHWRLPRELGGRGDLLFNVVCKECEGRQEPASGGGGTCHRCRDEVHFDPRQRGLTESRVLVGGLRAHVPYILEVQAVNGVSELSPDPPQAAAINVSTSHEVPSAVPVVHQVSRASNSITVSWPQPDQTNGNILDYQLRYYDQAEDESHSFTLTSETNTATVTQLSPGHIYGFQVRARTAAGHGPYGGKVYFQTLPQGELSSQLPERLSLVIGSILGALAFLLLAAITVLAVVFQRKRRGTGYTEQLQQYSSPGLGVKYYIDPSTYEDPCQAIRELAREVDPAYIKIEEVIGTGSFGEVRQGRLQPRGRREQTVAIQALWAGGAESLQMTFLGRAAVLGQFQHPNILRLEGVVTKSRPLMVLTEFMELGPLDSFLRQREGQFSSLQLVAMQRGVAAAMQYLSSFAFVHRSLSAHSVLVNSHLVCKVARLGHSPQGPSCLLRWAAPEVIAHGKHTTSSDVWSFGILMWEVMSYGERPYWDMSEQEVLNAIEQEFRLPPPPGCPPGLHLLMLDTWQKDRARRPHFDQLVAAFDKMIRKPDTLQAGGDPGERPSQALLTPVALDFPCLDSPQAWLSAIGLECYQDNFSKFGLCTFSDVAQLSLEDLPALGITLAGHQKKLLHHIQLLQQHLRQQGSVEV

Another experiment deals with T2, Ephrin type-B receptor 4 (Homo sapiens, UniProt P54760).
T2 sequence (P54760 whole entry): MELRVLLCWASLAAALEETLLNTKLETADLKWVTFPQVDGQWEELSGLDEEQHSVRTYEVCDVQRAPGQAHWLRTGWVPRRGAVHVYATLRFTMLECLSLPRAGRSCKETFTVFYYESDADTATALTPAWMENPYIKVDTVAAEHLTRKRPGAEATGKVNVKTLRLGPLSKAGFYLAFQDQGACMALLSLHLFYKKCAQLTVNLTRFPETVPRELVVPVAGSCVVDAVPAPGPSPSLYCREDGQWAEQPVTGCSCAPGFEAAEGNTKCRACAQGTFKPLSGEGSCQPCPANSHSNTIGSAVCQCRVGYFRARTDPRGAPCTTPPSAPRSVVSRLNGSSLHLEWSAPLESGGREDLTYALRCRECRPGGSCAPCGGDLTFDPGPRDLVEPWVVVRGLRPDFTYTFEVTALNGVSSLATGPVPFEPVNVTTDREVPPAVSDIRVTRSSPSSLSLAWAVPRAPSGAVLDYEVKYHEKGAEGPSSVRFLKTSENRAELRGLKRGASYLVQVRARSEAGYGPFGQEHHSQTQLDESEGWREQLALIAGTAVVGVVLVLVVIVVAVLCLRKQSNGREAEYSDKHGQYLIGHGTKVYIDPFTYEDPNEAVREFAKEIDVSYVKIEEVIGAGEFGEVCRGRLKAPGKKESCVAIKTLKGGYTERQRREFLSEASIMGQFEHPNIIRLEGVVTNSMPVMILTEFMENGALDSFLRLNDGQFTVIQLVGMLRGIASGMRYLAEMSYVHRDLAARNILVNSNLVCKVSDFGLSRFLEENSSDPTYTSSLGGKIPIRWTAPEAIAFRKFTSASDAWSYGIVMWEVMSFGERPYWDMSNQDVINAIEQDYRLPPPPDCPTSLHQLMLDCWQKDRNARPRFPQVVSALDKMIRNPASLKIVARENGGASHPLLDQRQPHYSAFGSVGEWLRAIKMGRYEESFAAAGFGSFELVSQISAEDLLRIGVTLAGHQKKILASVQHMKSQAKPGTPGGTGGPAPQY

For experiment [1], the target named is T3, Serine/threonine-protein kinase TAO3 (Homo sapiens, UniProt Q9H2K8).
T3 sequence (Q9H2K8 whole entry): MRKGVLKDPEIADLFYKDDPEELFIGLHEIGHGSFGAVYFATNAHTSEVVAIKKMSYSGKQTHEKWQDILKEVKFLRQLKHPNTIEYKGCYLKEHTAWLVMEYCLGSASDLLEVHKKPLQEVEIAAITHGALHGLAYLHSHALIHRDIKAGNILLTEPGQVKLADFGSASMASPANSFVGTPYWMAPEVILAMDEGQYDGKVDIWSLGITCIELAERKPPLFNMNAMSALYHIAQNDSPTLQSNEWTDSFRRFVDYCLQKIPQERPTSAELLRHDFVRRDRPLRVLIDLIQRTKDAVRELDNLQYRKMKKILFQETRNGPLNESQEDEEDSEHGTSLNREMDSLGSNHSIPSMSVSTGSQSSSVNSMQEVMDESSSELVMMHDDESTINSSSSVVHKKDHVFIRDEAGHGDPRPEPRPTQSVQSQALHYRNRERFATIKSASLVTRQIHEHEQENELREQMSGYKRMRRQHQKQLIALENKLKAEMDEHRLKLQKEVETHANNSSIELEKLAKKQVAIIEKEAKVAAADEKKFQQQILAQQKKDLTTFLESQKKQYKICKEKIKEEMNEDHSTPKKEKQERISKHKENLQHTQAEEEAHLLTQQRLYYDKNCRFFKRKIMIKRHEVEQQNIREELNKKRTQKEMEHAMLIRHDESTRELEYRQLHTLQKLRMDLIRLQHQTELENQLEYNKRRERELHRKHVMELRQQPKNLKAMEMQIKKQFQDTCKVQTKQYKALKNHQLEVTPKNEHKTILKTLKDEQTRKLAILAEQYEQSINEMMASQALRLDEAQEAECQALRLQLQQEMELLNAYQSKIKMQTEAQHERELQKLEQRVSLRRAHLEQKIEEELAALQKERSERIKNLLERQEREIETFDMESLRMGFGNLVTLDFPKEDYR

Experiment [2] deals with Epithelial discoidin domain-containing receptor 1 (Homo sapiens, UniProt Q08345).
Sequence of Epithelial discoidin domain-containing receptor 1 (Q08345 whole entry, the tested form may be a part): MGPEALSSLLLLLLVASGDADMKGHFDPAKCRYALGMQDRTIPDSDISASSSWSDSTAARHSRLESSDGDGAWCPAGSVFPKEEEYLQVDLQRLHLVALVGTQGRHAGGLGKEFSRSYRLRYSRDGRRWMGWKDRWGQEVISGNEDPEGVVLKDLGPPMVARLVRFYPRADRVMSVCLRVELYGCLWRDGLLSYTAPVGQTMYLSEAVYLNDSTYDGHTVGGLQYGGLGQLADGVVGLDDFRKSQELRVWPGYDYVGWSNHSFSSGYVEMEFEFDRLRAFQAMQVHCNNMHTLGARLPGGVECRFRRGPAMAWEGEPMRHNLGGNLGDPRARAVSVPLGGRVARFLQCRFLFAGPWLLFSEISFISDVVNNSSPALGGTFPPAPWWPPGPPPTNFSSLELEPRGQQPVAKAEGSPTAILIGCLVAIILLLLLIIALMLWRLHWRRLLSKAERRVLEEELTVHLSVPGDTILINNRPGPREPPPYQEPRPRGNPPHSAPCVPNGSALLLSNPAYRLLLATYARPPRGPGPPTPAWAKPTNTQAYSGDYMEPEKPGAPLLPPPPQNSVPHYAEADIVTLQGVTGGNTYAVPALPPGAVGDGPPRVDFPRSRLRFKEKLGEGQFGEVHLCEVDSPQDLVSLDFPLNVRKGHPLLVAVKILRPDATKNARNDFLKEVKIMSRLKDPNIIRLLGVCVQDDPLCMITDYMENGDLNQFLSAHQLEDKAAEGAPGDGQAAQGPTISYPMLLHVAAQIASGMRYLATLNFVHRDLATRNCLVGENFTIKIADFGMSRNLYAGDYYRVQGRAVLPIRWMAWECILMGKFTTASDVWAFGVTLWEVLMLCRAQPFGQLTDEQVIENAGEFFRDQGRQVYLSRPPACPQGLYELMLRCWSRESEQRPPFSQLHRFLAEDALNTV

Calls of active or inactive are those of the source. No stated cut-off is given here; in the data, actives have a measured Kd and inactives only a lower limit.

As to `CC[C@@](C)(Nc1ccnc(-c2c[nH]c3ncccc23)n1)C(=O)NCC(F)(F)F` [DECERNOTINIB], the Kd at Ephrin type-B receptor 6 is > 30 µM (inactive); at Ephrin type-B receptor 4, > 30 µM (inactive); in experiment [1], 7.87 µM (active); in experiment [2], > 30 µM (inactive).

Regarding `CC(C)(O)CC(=O)NCCn1ccc2ncnc(Nc3ccc(Oc4cccc(C(F)(F)F)c4)c(Cl)c3)c21` [TAK-285], the Kd on Ephrin type-B receptor 6 was 1.85 µM; on Ephrin type-B receptor 4 it was > 30 µM (inactive); in experiment [1] it was > 30 µM (inactive); in experiment [2], > 30 µM (inactive).

As to `COc1cc2ncnc(Nc3ccc(O)cc3)c2cc1OC` [WHI-P131], the Kd (at Ephrin type-B receptor 6; on Ephrin type-B receptor 4; in experiment [1]; in experiment [2]) was > 30 µM (inactive) each time.

Take `CNC(=O)c1cc(COc2nnc(Nc3ccc(Cl)cc3)c3ccoc23)ccn1` [TELATINIB]: the Kd (on Ephrin type-B receptor 6; on Ephrin type-B receptor 4; in experiment [1]; in experiment [2]) was > 30 µM (inactive) in each case.

`COc1cccc(Nc2ncnn3ccc(CN4CC[C@@H](N)[C@H](O)C4)c23)c1` [BMS-690514]: the Kd (at Ephrin type-B receptor 6; on Ephrin type-B receptor 4; in experiment [1]; in experiment [2]) was > 30 µM (inactive) throughout.

For `S=C(NCc1ccc2c(c1)OCO2)N1CCN(c2ncnc3c2oc2ccccc23)CC1` [AMUVATINIB], the Kd (at Ephrin type-B receptor 6; at Ephrin type-B receptor 4; in experiment [1]; in experiment [2]) was > 30 µM (inactive) in each case.

Turning to `COc1cc(F)c(F)c(Nc2ccc(I)cc2F)c1NS(=O)(=O)C1(C[C@H](O)CO)CC1` [REFAMETINIB], the Kd (on Ephrin type-B receptor 6; on Ephrin type-B receptor 4; in experiment [1]; in experiment [2]) was > 30 µM (inactive) throughout.

Consider `Cc1ccc(C(=O)Nc2ccc(Oc3cc4cnn(C)c4cc3-c3cn[nH]c3)c(F)c2)c(=O)n1-c1ccc(F)cc1` [MERESTINIB], for which the Kd is > 30 µM (inactive) on Ephrin type-B receptor 6, > 30 µM (inactive) at Ephrin type-B receptor 4, > 30 µM (inactive) in experiment [1] and 0.174 µM (active) in experiment [2].

For the molecule `C=CC(=O)Nc1cccc(Nc2nc(Nc3ccc(N4CCN(C(C)=O)CC4)cc3OC)ncc2C(F)(F)F)c1` [ROCILETINIB], the Kd (at Ephrin type-B receptor 6; at Ephrin type-B receptor 4; in experiment [1]; in experiment [2]) was > 30 µM (inactive) in each case.

For the molecule `C=CC(=O)Nc1cc(Nc2nccc(-c3cn(C)c4ccccc34)n2)c(OC)cc1N(C)CCN(C)C` [OSIMERTINIB], the Kd (on Ephrin type-B receptor 6; at Ephrin type-B receptor 4; in experiment [1]; in experiment [2]) was > 30 µM (inactive) each time.

With `COc1cc(Nc2ncc(F)c(Nc3ccc4c(n3)N(COP(=O)(O)O)C(=O)C(C)(C)O4)n2)cc(OC)c1OC` [FOSTAMATINIB], the Kd (on Ephrin type-B receptor 6; on Ephrin type-B receptor 4; in experiment [1]; in experiment [2]) was > 30 µM (inactive) in each case.

Take `O=S(=O)(c1cccc2cnccc12)N1CCCNCC1` [FASUDIL]: the Kd (on Ephrin type-B receptor 6; on Ephrin type-B receptor 4; in experiment [1]; in experiment [2]) was > 30 µM (inactive) each time.

Regarding `NC[C@@](O)(c1ccc(Cl)cc1)c1ccc(-c2cn[nH]c2)cc1` [AT-13148], the Kd (at Ephrin type-B receptor 6; at Ephrin type-B receptor 4; in experiment [1]; in experiment [2]) was > 30 µM (inactive) throughout.

As for `O=S(=O)(c1cccc2c(O)nccc12)N1CCCNCC1` [HYDROXYFASUDIL], the Kd (at Ephrin type-B receptor 6; at Ephrin type-B receptor 4; in experiment [1]; in experiment [2]) was > 30 µM (inactive) in each case.

For the molecule `O=C(O)c1ccc2c(c1)nc(Nc1cccc(Cl)c1)c1ccncc12` [SILMITASERTIB], the Kd (on Ephrin type-B receptor 6; on Ephrin type-B receptor 4; in experiment [1]; in experiment [2]) was > 30 µM (inactive) throughout.

Regarding `CCc1nc(C(N)=O)c(Nc2ccc(N3CCC(N4CCN(C)CC4)CC3)c(OC)c2)nc1NC1CCOCC1` [GILTERITINIB], the Kd at Ephrin type-B receptor 6 is 0.241 µM; on Ephrin type-B receptor 4 it was > 30 µM (inactive); in experiment [1], > 30 µM (inactive); in experiment [2], > 30 µM (inactive).

For `Cc1c(NC(=O)OC[C@@H]2COCCN2)cn2ncnc(Nc3ccc4c(cnn4Cc4cccc(F)c4)c3)c12` [AC-480], the Kd (at Ephrin type-B receptor 6; on Ephrin type-B receptor 4; in experiment [1]; in experiment [2]) was > 30 µM (inactive) in each case.

Take `O[C@H]1CC[C@H](Nc2ncc3nc(Nc4c(F)cc(F)cc4F)n([C@H]4CCOC4)c3n2)CC1` [TANZISERTIB]: the Kd (at Ephrin type-B receptor 6; on Ephrin type-B receptor 4; in experiment [1]; in experiment [2]) was > 30 µM (inactive) each time.

Regarding `C[C@]1(O)C[C@@H](c2nc(-c3ccc4ccc(-c5ccccc5)nc4c3)c3c(N)nccn32)C1` [LINSITINIB], the Kd (at Ephrin type-B receptor 6; at Ephrin type-B receptor 4; in experiment [1]; in experiment [2]) was > 30 µM (inactive) in each case.

In the case of `Cn1c(=O)n(-c2ccc(C(C)(C)C#N)cc2)c2c3cc(-c4cnc5ccccc5c4)ccc3ncc21` [DACTOLISIB], the Kd (on Ephrin type-B receptor 6; on Ephrin type-B receptor 4; in experiment [1]; in experiment [2]) was > 30 µM (inactive) each time.

Broadly, the Kd is the equilibrium constant for the complex coming apart.
